Data published in US5792457A, “Antibody recognizing endothelial cell ligand for leukocyte CR3” (priority 1995, dated 1998).

Assays:
[1] = test system: neutrophil adherence to human umbilical vein endothelial cells (HUVEC); assay: Adherence of neutrophils to cultured (TNF alpha stimulated) endothelial cells; assay type: cell-based; conditions: for inhibition of neutrophil adherence (in words): peptides 0.5 mM (Example 9); for inhibition of neutrophil adherence / role of RGD in blocking neutrophil adherence (in words): 20-mer peptides, 0.5 mM; for maximal inhibition of neutrophil attachment: concentration series (FIG. 25B); for neutrophil adherence, peptide plus 9D4: peptide 5 μg/ml + 9D4 10 μg/ml; for neutrophil adherence, peptide plus 12H1: peptide 5 μg/ml + 12H1 10 μl of ascites; for neutrophil adherence, peptide plus IB4: peptide 5 μg/ml + IB4 10 μg/ml; for neutrophil adherence, single agent: peptide 5 μg/ml or antibody alone (IB4 10 μg/ml, 12H1 10 μl of ascites, 9D4 10 μg/ml); for additive reduction of neutrophil adherence, peptide together with IB4: with anti-CD18 mAb IB4 (50 μg/ml)
Protocol: FIG. 17 is a bar graph representation of the inhibition of neutrophil adherence to activated endothelial cells by FHA, Factor X- and FHA- derived peptides. The concentration of inhibiting substances was: peptides 0.5 mM, native FHA 0.3 μM. Values represent the mean±standard deviation of 4 experiments with 5 wells/peptide.
FIG. 18 is a graphical representation of the FHA, FHA- or Factor X-peptide concentration effects on the inhibition of neutrophil adherence to activated endothelial cells. FHA peptide II monomer (Square) and trimer (Diamond), Factor X peptide II (Circle) at 10^-9 μM to 0.5 mM; native FHA at 10^-6 to 3×10^2 μM (triangle). Values represent the mean of 3 experiments with 5 wells/peptide (standard deviations <15%).
FIG. 25 is a graphical representation of the inhibition of neutrophil adherence to activated endothelial cells by FHA and FHA peptides. FIG. 25A: Peptide concentrations were 0.5 mM (FHA 0.2 μM). Values represent mean±standard deviation of four experiments with 5 wells/peptide; FIG. 25B represents the mean±standard deviation of triplicate experiments with 5 wells/peptide. Native FHA (.quadrature.); FHA peptide Ca (.largecircle.).
Human umbilical vein endothelial cells (HUVEC, first passage, Clonetics, San Diego, Calif.) were subcultured at confluence into Terasaki tissue culture wells. After 24 hours, confluent monolayers were used for adherence assays. Monolayers were stimulated with 10 ng/ml TNF alpha (Boehringer Mannheim, Indianapolis, Ind.) at 37° C. for four hours. 30 μl of human neutrophils (10^6 /ml) were labeled with fluorescein by the method of Lo et al. (1991), J. ExP. Med. 173 1493-1500, and preincubated for 15 minutes at 37° C. with 20 μl of peptides (0.5 mM in HAP) or HAP (phosphate buffered saline containing 0.5 mg/ml human serum albumin, 3 mM glucose, and 0.3 U/ml aprotinin) as a control buffer. For some experiments, endothelial cells were pretreated from 10 minutes with Factor X or antibodies against Factor X receptor (EPR-1; Altieri et al. (1990), J. Immunol. 145, 246-253) 12H1 and 9D4 (obtained from Dr. D. Altieri, Scripps Research Institute, LaJolla, Calif.) and then washed. Neutrophils were allowed to adhere to the monolayer for 15 mins. at 37° C. and unbound cells were removed by submersion of the plate in PBS buffer. The number of adherent neutrophils was counted in a 40× microscope field and expressed as a percentage of adherence in control wells with neutrophils treated with HAP buffer alone. The mAb IB4 against CD18 (50 μg/ml; Merck Inc., Rahway, N.J.) served as a positive control.
The ability of FHA peptides and anti-CD18 or anti-Factor X receptor antibodies to interact cooperatively to inhibit neutrophil adherence to endothelial cells was assessed by measuring neutrophil adherence to endothelial cells in the presence of antibody as well as antibody plus peptide. […] Anti-Factor X receptor mAb 12H1 (10 μl of ascites) or 9D4 (10 μg/ml) were added to the endothelial cell monolayers 10 min before the assay. The peptides were added at 5 μg/ml. The results are shown in Table 8 where the numerical values are in % of control binding.
The procedures for determining the neutrophil adherence to cultured endothelial cells and the transendothelial migration of neutrophils were identical with those of Example 9. Control values were the same as those shown in Example 9.

[2] = test system: blood brain barrier permeability (CSF protein); assay: Rabbit model for meningitis: protein in CSF (blood brain barrier permeability); assay type: in vivo, New Zealand white rabbits; conditions: for protein influx into CSF and generation of lactate (in words): 10 μM peptides (Table 10); for Protein in CSF: 6 hours after challenge; for Total protein in CSF, 6 hours: 6 hours after inoculation (Example 11, 1 μM peptide; FHA 0.1 μM); for Total protein in CSF, 7 hours: 7 hours after inoculation (Example 11, 1 μM peptide; FHA 0.1 μM)
Protocol: The rabbit model was performed according to an established protocol. Specific pathogen free, New Zealand white rabbits (2 kg; Hare Marland, Nutley, N.J.) were anesthetized with valium (2.5 mg/kg, subcutaneously, Hoffman-LaRoche, Nutley, N.J.), ketamine (35 mg/kg, intra-muscularly, Aveco, Fort Dodge, Iowa) and xylazine (5 mg/kg, intramuscularly, Miles Laboratories, Shawnee, Kans.) and a helmet of dental acrylic was affixed to the calvarium. Twenty four hours later, the rabbits were anesthetized with ethyl carbamate (1.75 g/kg; Aldrich Chemical Co., Milwaukee, Wis.) and pentobarbital (15 mg/kg; Abbott Laboratories, Abbott Park, Ill.) and placed in a stereotaxic frame. A spinal needle was introduced into the cisterna magna and 300 μl of CSF was withdrawn. The animals were challenged intracisternally with 10^8 heat killed, unencapsulated pneumococcus strain R6 introduced in 200 μl of saline (time 0). One hour later, animals were treated with peptides dissolved in 1 ml of saline by intravenous injection into the right marginal ear vein. The concentration of FHA was 0.1 μM and that of the FHA Ia, Factor X II, and scrambled FHA II peptides was 10 μM. For the acetyl-FHA II, acetyl/amide-FHA II, dimer of FHA II and trimer of FHA II peptides, the concentration was 10^-3 μM. The concentration of FHA II is given in the results section. Samples of CSF were withdrawn at hourly intervals after pneumococcal inoculation and leukocyte density was measured using a cell counter (Coulter Electronics Inc., Hialeah, Fla.). CSF samples were centrifuged at 10,000×g for 5 minutes and the supernatant was stored at -70° C. until assayed for protein concentration using the bicinchoninic acid method (ECA Kit, Pierce Chemical Co., Rockford, Ill.) and for lactate concentration (Lactate Detection Kit, Sigma, St. Louis, Mo.). Statistically significant differences between treatments were determined by a one way analysis of variance test.
Loss of barrier function of the cerebral capillary endothelium during inflammation is reflected by an influx of serum proteins into the CSF. […] To examine if the peptides were able to ameliorate these measures of cerebral injury, CSF protein and lactate concentrations were measured hourly in peptide-treated and control animals (Table 10).
Mean values for CSF lactate and protein at time 0 were 18.6±5.8 and 0.8±0.2 respectively. Ten control animals received phosphate-buffered saline. The concentration of FHA II intravenously injected one hour after challenge with pneumococci was 10 μM. Values represent mean±standarddeviation of concentrations in CSF at 6 hours after pneumococcal challenge (n≥4 for peptide treated animals; n=4 for FHA). *Statistically significant difference as compared to control at p<0.02 (Mann-Whitney test).
Again, mean values for CSF lactate and protein at time 0 were 18.6±5.8 and 0.8±0.2, respectively. Ten control animals received phosphate-buffered saline. The concentrations of FHA II intravenously injected was 10^-3 μM. Values represent mean±standard deviation of concentrations in CSF at 6 hours after pneumococcal administration (n≥4 per group).
The anti-inflammatory effects of the administered peptides were assessed in the rabbit model for meningitis by the procedures described in Example 10. The animals received 1 ml of 1 uM peptide intravenously. In a slight departure from the protocol described in Example 10, samples of blood were drawn from the left marginal ear vein 30 minutes after the administration of the peptides to determine peripheral leukocyte concentrations.
Values represent mean ±standard deviation of at least four animals per group. ^1 Time after intracisternal inoculation of pneumococci. *Statistically significant difference as compared to control at p<0.02 (Mann-Whitney test).

Substance	inhibition of neutrophil adherence (in words) [1]	protein influx into CSF and generation of lactate (in words) [2]	Protein in CSF ([2]; peptides 10 μM, FHA 0.1 μM) [mg/ml CSF]	Total protein in CSF, 6 hours [2] [mg/mL]	Total protein in CSF, 7 hours [2] [mg/mL]	further results
Ac-ETKEVDG-NH2 [Acetyl/Amide-FHA II]	significantly enhanced the ability of peptide FHA II to block neutrophil adherence to endothelia	significantly reduced protein influx into the CSF and generation of lactate	1.2 ± 0.6			
RGDPHQGVLAQGDIIMDAKG [FHA Ca]				1.18 ± 0.39	1.69 ± 0.41	inhibition of neutrophil adherence [1]: 47±7%; maximal inhibition of neutrophil attachment [1]: ~ 50%; influx of serum protein into CSF (in words) ([2]; 1 μM, entire observation period): reduced the influx of serum protein significantly during the entire observation period
ETKEVDG [FHA II]		significantly reduced protein influx into the CSF and generation of lactate	1.4 ± 0.6			neutrophil adherence, peptide plus 9D4 [1]: 45 ± 9 % of control binding; neutrophil adherence, peptide plus 12H1 [1]: 67 ± 13 % of control binding; neutrophil adherence, peptide plus IB4 [1]: 11 ± 6 % of control binding; neutrophil adherence, single agent [1]: 40 ± 23 % of control binding; additive reduction of neutrophil adherence, peptide together with IB4 [1]: > 80±10%; protein and lactate in CSF (in words) ([2]; 10^-3 μM): ineffective at this dose; Protein in CSF ([2]; 10^-3 μM): 2.45 ± 0.22 mg/ml CSF
native FHA: Filamentous hemagglutinin, 220kD surface associated protein of Bordetella pertussis (List Biologicals)		significantly protective for protein influx and lactate generation	1.3 ± 0.3	1.70 ± 0.33	1.86 ± 0.76	concentration at which loss of activity (≤20% inhibition) occurred [1]: 10^-3 μM; maximal inhibition of neutrophil attachment [1]: ~ 50%; reduction of neutrophil binding to HUVEC ([1]; native FHA 25 μg/ml = 0.3 μM): 51±8%; inhibition of adherence of neutrophils to endothelial cells ([1]; native FHA 50 ug/ml, 0.2 uM): 51±7%
RADPHQGVLAQGDIIMDAKG [FHA Cb]				1.91 ± 0.24	2.28 ± 0.28	role of RGD in blocking neutrophil adherence (in words) [1]: activity was decreased by half
LGYQAK (UniProt P12255 1979-1984, looked up, fragment) [FHA Ia]	significantly more active than the Factor X peptide I	no significant reduction	1.8 ± 0.4			neutrophil adherence, peptide plus 9D4 [1]: 63 ± 17 % of control binding; neutrophil adherence, peptide plus 12H1 [1]: 64 ± 12 % of control binding; neutrophil adherence, peptide plus IB4 [1]: 20 ± 7 % of control binding; neutrophil adherence, single agent [1]: 63 ± 12 % of control binding; additive reduction of neutrophil adherence, peptide together with IB4 [1]: > 80±10%
GTLLLRNDALTENGTVTISA [FHA Cd]				1.71 ± 0.19	2.03 ± 0.57	inhibition of neutrophil adherence [1]: < 15%
GYDTKQEDG [Factor X II]		no significant reduction	1.6 ± 0.7			
DEETVK [scrambled FHA II, reference compound]	did not interfere with neutrophil binding		1.9 ± 0.3			
AADPHQGVLAQGDIIMDAKG [FHA Cc]				1.36 ± 0.16	1.90 ± 0.22	role of RGD in blocking neutrophil adherence (in words) [1]: activity was detectable above background but was not statistically different from buffer alone
